Measurements taken from patent US5624923A, “Tricyclic diazepine vasopressin antagonists and oxytocin antagonists” (priority 1995, dated 1997).

What was measured:
[1] = target: T1, Rat Kidney Medullary V2 Receptors (Rattus norvegicus, UniProt Q00788); experiment: Binding Assay to Rat Kidney Medullary V2 Receptors; details: for IC50: rat kidney medulla membranes, read-out: V2 IC50; for inhibition at 10 µM: rat
T1 construct: Medullary tissues from rat kidneys are dissected out; from tissue; host or cells: rat kidney medulla membranes
Procedure, shortened: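 Membranes were prepared from rat kidney medulla and stored in 50.0 mM Tris-HCl pH 7.4 with 0.2% BSA and 0.1 mM PMSF. Radioligand competition ran 120 min at bench temperature, with 1.0 μM unlabeled ligand defining nonspecific binding. Compounds were added in 50% DMSO; filtration, tritium scintillation counting, IC50 from competition analysis.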

[2] = target: T2, Rat Hepatic V1 Receptors (Rattus norvegicus, UniProt P30560); experiment: Binding Assay to Rat Hepatic V1 Receptors; details: for IC50: rat liver membranes, read-out: V1 IC50; for inhibition at 10 µM: 2 h, rat
T2 construct: Rat liver plasma membranes expressing the vasopressin V1 receptor subtypes; from tissue; host or cells: rat liver plasma membranes

[3] = test system: Vasopressin V2; experiment: Vasopressin V2 Antagonist Activity in Conscious Hydrated Rats; format: in vivo, rat; details: 10 mg/kg orally, AVP 0.4 μg/kg i.p.
Procedure, shortened: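 Four-hour urine output, osmolality and electrolytes (Na+, K+, Cl−) recorded in water-loaded rats (30 mL/kg deionized water orally) given AVP i.p. at 0.4 μg/kg. Test compounds were given orally at 0.1–100 mg/kg 1 h before AVP; 2–4 rats per compound.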

[4] = test system: Vasopressin V1; experiment: Vasopressin V1 Antagonist Activity in Conscious Rats (vasopressin vasopressor response); format: in vivo, rat
Procedure, shortened: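 Conscious rats are restrained supine, and under local 2% procaine a PE 10/20 cannula is passed through the ventral caudal tail artery into the lower abdominal aorta. The caudal vein is cannulated for intravenous dosing. Blood pressure is recorded with a Statham P23Db transducer, and vasopressin injections are repeated after compound dosing. Percent antagonism is calculated against the pre-drug vasopressor response taken as 100%.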

T2 sequence (P30560 whole entry): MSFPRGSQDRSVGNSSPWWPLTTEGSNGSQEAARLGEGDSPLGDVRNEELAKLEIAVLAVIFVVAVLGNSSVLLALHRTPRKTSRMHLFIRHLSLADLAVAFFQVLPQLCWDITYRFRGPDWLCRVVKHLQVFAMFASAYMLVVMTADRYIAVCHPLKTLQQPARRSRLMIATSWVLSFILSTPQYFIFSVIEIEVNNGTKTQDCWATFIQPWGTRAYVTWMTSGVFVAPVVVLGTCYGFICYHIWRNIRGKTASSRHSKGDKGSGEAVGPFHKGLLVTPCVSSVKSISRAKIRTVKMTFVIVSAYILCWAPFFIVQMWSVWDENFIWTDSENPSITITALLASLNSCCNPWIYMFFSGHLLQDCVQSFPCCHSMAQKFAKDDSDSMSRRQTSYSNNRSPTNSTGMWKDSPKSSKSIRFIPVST
T1 sequence (Q00788 whole entry): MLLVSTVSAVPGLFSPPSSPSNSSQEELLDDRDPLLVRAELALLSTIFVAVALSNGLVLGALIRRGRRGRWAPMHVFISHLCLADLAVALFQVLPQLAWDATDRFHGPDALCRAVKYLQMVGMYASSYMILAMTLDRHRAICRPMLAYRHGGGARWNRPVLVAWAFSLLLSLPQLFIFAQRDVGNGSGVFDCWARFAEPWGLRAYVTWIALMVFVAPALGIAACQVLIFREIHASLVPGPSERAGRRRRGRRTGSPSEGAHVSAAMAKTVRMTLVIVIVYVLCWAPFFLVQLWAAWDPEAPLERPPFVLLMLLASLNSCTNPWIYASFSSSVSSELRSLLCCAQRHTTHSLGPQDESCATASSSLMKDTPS

Compound | IC50 [1] [nM] | IC50 [2] [nM] | Osmolality [3] [mOsm/kg] | Urine Volume [3] [ml/4 hrs] | Max. % Inhibition ([4]; 10 mg/kg i.v.) [%] | Time (of max. % inhibition) ([4]; 10 mg/kg i.v.) [min] | Max. % Inhibition ([4]; 30 mg/kg p.o.) [%] | Time (of max. % inhibition) ([4]; 30 mg/kg p.o.) [min] | Max. % Inhibition ([4]; 30 mg/kg i.v.) [%] | Time (of max. % inhibition) ([4]; 30 mg/kg i.v.) [min] | inhibition at 10 µM [1] [%] | inhibition at 10 µM [2] [%] | Max. % Inhibition ([4]; 10 mg/kg p.o.) [%] | Time (of max. % inhibition) ([4]; 10 mg/kg p.o.) [min]
O=C(Nc1ccc(C(=O)N2Cc3cccn3Cc3ccccc32)cc1)c1sccc1Cl [Example 476, N-[4-(5H-pyrrolo[2,1-c][1,4]benzodiazepin-10(11H)-ylcarbonyl)phenyl]-3-chlorothiophene-2-carboxamide] | 69 | 84 | 1233 | 5 | 78 | 30 | 19 | 180 |  |  |  |  |  | 
Cc1c(F)cccc1C(=O)Nc1ccc(C(=O)N2Cc3cccn3Cc3ccccc32)c(Cl)c1 [Example 481, N-[4-(5H-pyrrolo[2,1-c][1,4]benzodiazepin-10(11H)-ylcarbonyl)-3-chlorophenyl]-3-fluoro-2-methylbenzamide] | 3.4 | 1000 | 473 | 17.2 |  |  | 58 | 80 |  |  |  |  |  | 
Cc1ccc(F)cc1C(=O)Nc1ccc(C(=O)N2Cc3cccn3Cc3ccccc32)c(Cl)c1 [Example 482, N-[4-(5H-pyrrolo[2,1-c][1,4]benzodiazepin-10(11H)-ylcarbony)-3-chlorophenyl]-5-fluoro-2-methylbenzamide] | 2.3 | 410 | 372 ± 17 | 22 ± 0.9 | 40 | 60 |  |  |  |  |  |  |  | 
Cc1cccc(NC(=O)c2ccc(C(=O)N3Cc4cccn4Cc4ccccc43)cc2)c1C [Example 485, N-(2,3-Dimethylphenyl)-4-(5H-pyrrolo[2,1-c][1,4]benzodiazepin-10(11H)-ylcarbonyl)benzamide] | 13 | 240 | 961 | 4 |  |  |  |  | 64 | 60 |  |  |  | 
COC(=O)c1ccc(C(=O)Nc2ccc(C(=O)N3Cc4cccn4Cc4ccccc43)cc2)cc1 [Example 489] |  |  | 1194 | 6.1 |  |  |  |  | 39 | 120 | 82 | 61 |  | 
CN(C)CN(C(=O)c1ccc(Cl)cc1Cl)c1ccc(C(=O)N2Cc3cccn3Cc3ccccc32)cc1 [Example 490, N-[(Dimethylamino)methyl]-N-[4-(5H-pyrrolo[2,1-c][1,4]benzodiazepin-10(11H)-ylcarbonyl)phenyl]-2,4-dichlorobenzamide] | 5 | 14 | 487 ± 38 | 71.5 ± 1.6 | 74 | 90 |  |  |  |  |  |  | 65 | 120
Cc1c(F)cccc1C(=O)Nc1ccc(C(=O)N2Cc3ccnn3Cc3ccccc32)cc1 [Example 517, N-[4-(4H-Pyrazolo[5,1-c][1,4]benzodiazepin-5(10H)-ylcarbonyl)phenyl]-3-fluoro-2-methylbenzamide] | 15 | 210 | 411 | 14.7 | 81 | 90 |  |  |  |  |  |  |  | 
O=C(Nc1ccc(C(=O)N2Cc3ccc(CO)n3Cc3ccccc32)cc1)c1ccc(Cl)cc1Cl [Example 581, 2,4-Dichloro-N-[4-[[3-(hydroxymethyl)-5H-pyrrolo[2,1-c][1,4]benzodiazepin-10(11H)-yl]carbonyl]phenyl]benzamide] | 5.3 | 21 | 941 ± 219 | 4 ± 1.2 | 94 | 30 | 79 | 30 |  |  |  |  |  | 
O=C(Nc1ccc(C(=O)N2Cc3ccc(Cn4ccnc4)n3Cc3ccccc32)cc1)c1ccc(Cl)cc1Cl [Example 582, 2,4-Dichloro-N-[4-[[3-(1H-imidazol-1-ylmethyl)-5H-pyrrolo[2,1-c][1,4]benzodiazepin-10(11H)-yl]carbonyl]phenyl]benzamide] | 14 | 130 | 604 | 9.5 | 75 | 170 |  |  |  |  |  |  |  | 
NC(=O)CNC(C(=O)Nc1ccc(C(=O)N2Cc3cccn3Cc3ccccc32)cc1)c1ccccc1 (stereo not drawn) [Example 585] | 83 | 280 | 1483 | 3.3 | 56 | 30 |  |  |  |  |  |  |  | 
CC(=O)OC(C(=O)Nc1ccc(C(=O)N2Cc3cccn3Cc3ccccc32)cc1)c1ccccc1 (stereo not drawn) [Example 587, α-(Acetyloxy)-N-[4-(5H-pyrrolo[2,1-c][1,4]benzodiazepin-10(11H)-ylcarbonyl)phenyl]benzeneacetamide] | 22 | 67 | 868 | 9 | 75 | 60 |  |  |  |  |  |  |  | 
O=C(CN1CCOCC1)Nc1ccc(C(=O)N2Cc3cccn3Cc3ccccc32)cc1 [Example 590, N-[4-(5H-pyrrolo[2,1-c][1,4]benzodiazepin-10(11H)-ylcarbonyl)phenyl]-4-morpholineacetamide] |  |  | 1355 | 3 |  |  |  |  | 89 | 120 | 81 | 89 |  | 
COC(=O)c1ccc2n1Cc1ccccc1N(C(=O)c1ccc(NC(=O)c3ccc(Cl)cc3Cl)cc1)C2 [Example 593] | 42 | 210 | 577 | 11.8 |  |  |  |  | 67 | 60 |  |  |  | 
O=C(Nc1ccc(C(=O)N2Cc3ccc(C(=O)C(F)(F)F)n3Cc3ccccc32)cc1)c1ccccc1C(F)(F)F [Example 594] |  |  | 1172 ± 182 | 4.9 ± 1.2 |  |  |  |  | 36 | 180 | 23 | 78 |  | 
Cc1ccccc1C(=O)Nc1ccc(C(=O)N2Cc3ccc(C(=O)C(F)(F)F)n3Cc3ccccc32)c(Cl)c1 [Example 595, N-[4-[[3-(Trifluoroacetyl)-5H-pyrrolo[2,1-c][1,4]benzodiazepin-10(11H)-yl]carbonyl]-3-chlorophenyl]-2-methylbenzamide] |  |  | 1474 | 8.3 |  |  |  |  | 44 | 90 | 93 | 57 |  | 
O=C(Nc1ccc(C(=O)N2Cc3cccn3Cc3ccccc32)cc1)c1cc(Cl)cc(Cl)c1Cl [Example 599, N-[4-(5H-Pyrrolo[2,1-c][1,4]benzodiazepin-10(11H)-ylcarbonyl)phenyl]-2,3,5-trichlorobenzamide] | 14 | 46 | 407 | 18 |  |  |  |  | 86 | 90 |  |  |  | 
